Data reported in PubChem BioAssay (NCI).
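Assay format: 96-well plates, 48-hour exposure. Here, GI50 denotes the concentration required for 50% inhibition of growth. TGI: concentration producing complete growth inhibition.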

Columns and labels:
Assay in all cases: DTP human tumour cell line panel, 48 h
786-0 renal = test system: 786-0 renal
A498 renal = test system: A498 renal
A549 NSCLC = test system: A549 NSCLC
ACHN renal = test system: ACHN renal
CAKI-1 renal = test system: CAKI-1 renal
CCRF-CEM leukemia = test system: CCRF-CEM leukemia
COLO 205 colon = test system: COLO 205 colon
DU-145 prostate = test system: DU-145 prostate
EKVX NSCLC = test system: EKVX NSCLC
HCT-116 colon = test system: HCT-116 colon
HCT-15 colon = test system: HCT-15 colon
HL-60(TB) leukemia = test system: HL-60(TB) leukemia
HOP-92 NSCLC = test system: HOP-92 NSCLC
HS 578T breast = test system: HS 578T breast
HT29 colon = test system: HT29 colon
IGROV1 ovarian = test system: IGROV1 ovarian
K-562 leukemia = test system: K-562 leukemia
KM12 colon = test system: KM12 colon
LOX IMVI melanoma = test system: LOX IMVI melanoma
M14 melanoma = test system: M14 melanoma
MALME-3M melanoma = test system: MALME-3M melanoma
MCF7 breast = test system: MCF7 breast
MDA-MB-231 breast = test system: MDA-MB-231 breast
MDA-MB-435 = test system: MDA-MB-435
MDA-N = test system: MDA-N
MOLT-4 leukemia = test system: MOLT-4 leukemia
NCI-H226 lung = test system: NCI-H226 lung
NCI-H23 lung = test system: NCI-H23 lung
NCI-H460 lung = test system: NCI-H460 lung
NCI-H522 lung = test system: NCI-H522 lung
NCI/ADR-RES ovarian = test system: NCI/ADR-RES ovarian
OVCAR-4 ovarian = test system: OVCAR-4 ovarian
OVCAR-5 ovarian = test system: OVCAR-5 ovarian
OVCAR-8 ovarian = test system: OVCAR-8 ovarian
PC-3 prostate = test system: PC-3 prostate
RPMI-8226 leukemia = test system: RPMI-8226 leukemia
RXF 393 renal = test system: RXF 393 renal
SF-268 CNS = test system: SF-268 CNS
SF-295 CNS = test system: SF-295 CNS
SF-539 CNS = test system: SF-539 CNS
SK-MEL-2 melanoma = test system: SK-MEL-2 melanoma
SK-MEL-28 melanoma = test system: SK-MEL-28 melanoma
SK-MEL-5 melanoma = test system: SK-MEL-5 melanoma
SN12C renal = test system: SN12C renal
SNB-19 CNS = test system: SNB-19 CNS
SNB-75 CNS = test system: SNB-75 CNS
SR leukemia = test system: SR leukemia
SW-620 colon = test system: SW-620 colon
TK-10 renal = test system: TK-10 renal
U251 CNS = test system: U251 CNS
UACC-257 melanoma = test system: UACC-257 melanoma
UACC-62 melanoma = test system: UACC-62 melanoma
UO-31 renal = test system: UO-31 renal
HCC-2998 colon = test system: HCC-2998 colon
HOP-62 NSCLC = test system: HOP-62 NSCLC
SK-OV-3 ovarian = test system: SK-OV-3 ovarian
T-47D breast = test system: T-47D breast
BT-549 breast = test system: BT-549 breast
OVCAR-3 ovarian = test system: OVCAR-3 ovarian

## CC(=O)OC1CC[C@@]2(C)C(=CC[C@@H]3[C@@H]2CC[C@]2(C)C(OC(C)=O)[C@H](n4ccnc4)C[C@@H]32)C1 (some centres undefined)
786-0 renal
  TGI: > 100 µM
A498 renal
  TGI: > 100 µM
A549 NSCLC
  TGI: > 100 µM
ACHN renal
  TGI: > 100 µM
CAKI-1 renal
  TGI: > 100 µM
CCRF-CEM leukemia
  TGI: 37.1 µM
COLO 205 colon
  TGI: 34.4 µM
DU-145 prostate
  TGI: > 100 µM
EKVX NSCLC
  TGI: > 100 µM
HCT-116 colon
  TGI: 31.2 µM
HCT-15 colon
  TGI: 30.6 µM
HL-60(TB) leukemia
  TGI: 35.6 µM
HOP-92 NSCLC
  TGI: > 100 µM
HS 578T breast
  TGI: > 100 µM
HT29 colon
  TGI: 23.7 µM
IGROV1 ovarian
  TGI: > 100 µM
K-562 leukemia
  TGI: 86.3 µM
KM12 colon
  TGI: 30.4 µM
LOX IMVI melanoma
  TGI: 37.7 µM
M14 melanoma
  TGI: 31.2 µM
MALME-3M melanoma
  TGI: 28.3 µM
MCF7 breast
  TGI: 33.2 µM
MDA-MB-231 breast
  TGI: > 100 µM
MDA-MB-435
  TGI: 31.6 µM
MDA-N
  TGI: 46.6 µM
MOLT-4 leukemia
  TGI: 30.3 µM
NCI-H226 lung
  TGI: > 100 µM
NCI-H23 lung
  TGI: > 100 µM
NCI-H460 lung
  TGI: 33.4 µM
NCI-H522 lung
  TGI: 40.9 µM
NCI/ADR-RES ovarian
  TGI: > 100 µM
OVCAR-4 ovarian
  TGI: 46.6 µM
OVCAR-5 ovarian
  TGI: > 100 µM
OVCAR-8 ovarian
  TGI: 44.2 µM
PC-3 prostate
  TGI: 39.5 µM
RPMI-8226 leukemia
  TGI: 55.2 µM
RXF 393 renal
  TGI: > 100 µM
SF-268 CNS
  TGI: > 100 µM
SF-295 CNS
  TGI: > 100 µM
SF-539 CNS
  TGI: 29.8 µM
SK-MEL-2 melanoma
  TGI: 34.2 µM
SK-MEL-28 melanoma
  TGI: 31.5 µM
SK-MEL-5 melanoma
  TGI: 30.3 µM
SN12C renal
  TGI: > 100 µM
SNB-19 CNS
  TGI: > 100 µM
SNB-75 CNS
  TGI: > 100 µM
SR leukemia
  TGI: 36.7 µM
SW-620 colon
  TGI: > 100 µM
TK-10 renal
  TGI: > 100 µM
U251 CNS
  TGI: > 100 µM
UACC-257 melanoma
  TGI: 31.1 µM
UACC-62 melanoma
  TGI: 30.3 µM
UO-31 renal
  TGI: > 100 µM

## O=C(/C=C/c1cccs1)c1ccc([N+](=O)[O-])cc1
786-0 renal
  TGI: > 100 µM
A498 renal
  TGI: > 100 µM
A549 NSCLC
  TGI: > 100 µM
ACHN renal
  TGI: > 100 µM
CAKI-1 renal
  TGI: > 100 µM
CCRF-CEM leukemia
  TGI: > 100 µM
COLO 205 colon
  TGI: > 100 µM
DU-145 prostate
  TGI: > 100 µM
EKVX NSCLC
  TGI: > 100 µM
HCC-2998 colon
  TGI: > 100 µM
HCT-116 colon
  TGI: > 100 µM
HCT-15 colon
  TGI: > 100 µM
HL-60(TB) leukemia
  TGI: > 100 µM
HOP-62 NSCLC
  TGI: > 100 µM
HS 578T breast
  TGI: > 100 µM
HT29 colon
  TGI: > 100 µM
IGROV1 ovarian
  TGI: > 100 µM
K-562 leukemia
  TGI: > 100 µM
KM12 colon
  TGI: > 100 µM
LOX IMVI melanoma
  TGI: > 100 µM
M14 melanoma
  TGI: > 100 µM
MALME-3M melanoma
  TGI: > 100 µM
MCF7 breast
  TGI: > 100 µM
MDA-MB-231 breast
  TGI: > 100 µM
MDA-MB-435
  TGI: > 100 µM
MDA-N
  TGI: > 100 µM
MOLT-4 leukemia
  TGI: > 100 µM
NCI-H226 lung
  TGI: > 100 µM
NCI-H23 lung
  TGI: > 100 µM
NCI-H460 lung
  TGI: > 100 µM
NCI/ADR-RES ovarian
  TGI: > 100 µM
OVCAR-4 ovarian
  TGI: > 100 µM
OVCAR-8 ovarian
  TGI: > 100 µM
PC-3 prostate
  TGI: > 100 µM
RPMI-8226 leukemia
  TGI: > 100 µM
SF-268 CNS
  TGI: > 100 µM
SF-295 CNS
  TGI: > 100 µM
SF-539 CNS
  TGI: > 100 µM
SK-MEL-2 melanoma
  TGI: > 100 µM
SK-MEL-28 melanoma
  TGI: > 100 µM
SK-MEL-5 melanoma
  TGI: > 100 µM
SK-OV-3 ovarian
  TGI: > 100 µM
SN12C renal
  TGI: > 100 µM
SNB-19 CNS
  TGI: > 100 µM
SNB-75 CNS
  TGI: > 100 µM
SR leukemia
  TGI: > 100 µM
SW-620 colon
  TGI: > 100 µM
T-47D breast
  TGI: > 100 µM
TK-10 renal
  TGI: > 100 µM
U251 CNS
  TGI: > 100 µM
UACC-257 melanoma
  TGI: > 100 µM
UACC-62 melanoma
  TGI: > 100 µM
UO-31 renal
  TGI: > 100 µM

## Cc1ccc(C(=O)N2C/C(=C/c3ccccc3)C(=O)/C(=C/c3ccccc3)C2)cc1
786-0 renal
  GI50: 3.52 µM
  TGI: 15.2 µM
A498 renal
  GI50: > 65 µM
  TGI: > 100 µM
A549 NSCLC
  GI50: 63.3 µM
  TGI: > 100 µM
ACHN renal
  GI50: 5.04 µM
  TGI: > 67.1 µM
BT-549 breast
  GI50: 3.42 µM
  TGI: 15.8 µM
CAKI-1 renal
  GI50: > 57.5 µM
  TGI: > 100 µM
CCRF-CEM leukemia
  GI50: 2230 nM
  TGI: > 100 µM
COLO 205 colon
  GI50: 8.7 µM
  TGI: > 100 µM
DU-145 prostate
  GI50: 17.8 µM
  TGI: > 100 µM
HCC-2998 colon
  GI50: 3.08 µM
  TGI: 8.67 µM
HCT-116 colon
  GI50: 226 nM
  TGI: 0.548 µM
HCT-15 colon
  GI50: 3.13 µM
  TGI: > 100 µM
HL-60(TB) leukemia
  GI50: 18.8 µM
  TGI: > 100 µM
HOP-62 NSCLC
  GI50: 4.96 µM
  TGI: 61.3 µM
HOP-92 NSCLC
  GI50: 10.7 µM
  TGI: > 100 µM
HS 578T breast
  GI50: 4.48 µM
  TGI: 50.7 µM
HT29 colon
  GI50: 2030 nM
  TGI: 7 µM
IGROV1 ovarian
  GI50: 12.8 µM
  TGI: > 100 µM
K-562 leukemia
  GI50: 1660 nM
  TGI: > 100 µM
KM12 colon
  GI50: 1430 nM
  TGI: 6.94 µM
LOX IMVI melanoma
  GI50: 1160 nM
  TGI: 3.08 µM
M14 melanoma
  GI50: 3.85 µM
  TGI: > 92.1 µM
MALME-3M melanoma
  GI50: 30.6 µM
  TGI: > 100 µM
MCF7 breast
  GI50: 387 nM
  TGI: > 41.9 µM
MDA-MB-231 breast
  GI50: 4.61 µM
  TGI: > 77.2 µM
MDA-MB-435
  GI50: 1010 nM
  TGI: 6.41 µM
MOLT-4 leukemia
  GI50: 4.98 µM
  TGI: > 100 µM
NCI-H226 lung
  TGI: > 100 µM
NCI-H23 lung
  GI50: 8.86 µM
  TGI: > 100 µM
NCI-H460 lung
  GI50: 31 µM
  TGI: > 100 µM
NCI-H522 lung
  GI50: 11.6 µM
  TGI: > 56 µM
NCI/ADR-RES ovarian
  GI50: 27.7 µM
  TGI: > 100 µM
OVCAR-3 ovarian
  GI50: 6.8 µM
  TGI: > 100 µM
OVCAR-4 ovarian
  GI50: 16.5 µM
  TGI: > 100 µM
OVCAR-5 ovarian
  GI50: > 75.5 µM
  TGI: > 100 µM
OVCAR-8 ovarian
  GI50: 5.09 µM
  TGI: > 100 µM
PC-3 prostate
  GI50: 6.08 µM
  TGI: > 100 µM
RPMI-8226 leukemia
  GI50: 131 nM
  TGI: 0.971 µM
RXF 393 renal
  GI50: 2200 nM
  TGI: 6.39 µM
SF-268 CNS
  GI50: 10.8 µM
  TGI: > 100 µM
SF-295 CNS
  GI50: 5.36 µM
  TGI: > 100 µM
SF-539 CNS
  GI50: 9.66 µM
  TGI: 72.2 µM
SK-MEL-2 melanoma
  GI50: > 62.8 µM
  TGI: > 100 µM
SK-MEL-28 melanoma
  GI50: 8.98 µM
  TGI: 68.9 µM
SK-MEL-5 melanoma
  GI50: 3.3 µM
  TGI: > 31.6 µM
SK-OV-3 ovarian
  GI50: 8.64 µM
  TGI: > 100 µM
SN12C renal
  GI50: 7.34 µM
  TGI: > 100 µM
SNB-19 CNS
  GI50: 9.51 µM
  TGI: > 100 µM
SNB-75 CNS
  GI50: 2580 nM
  TGI: 16.4 µM
SR leukemia
  GI50: 461 nM
  TGI: 9.09 µM
SW-620 colon
  GI50: 2940 nM
  TGI: > 59.3 µM
T-47D breast
  GI50: 15.6 µM
  TGI: > 100 µM
TK-10 renal
  GI50: 20.8 µM
  TGI: 90 µM
U251 CNS
  GI50: 3.28 µM
  TGI: > 100 µM
UACC-257 melanoma
  GI50: 10.1 µM
  TGI: > 100 µM
UACC-62 melanoma
  GI50: 4.49 µM
  TGI: 25.8 µM
UO-31 renal
  GI50: 10.2 µM
  TGI: > 100 µM
